Laboratory results published in paper PMC6651387, “Fine-Tuning the Activation Mode of an 1,3-Indandione-Based Ruthenium(II)-Cymene Half-Sandwich Complex by Variation of Its Leaving Group” (Molecules, 2019).

What was measured:
Assay type in all cases: cell-based, human
[1] = system: CH1/PA-1 (ovarian teratocarcinoma) cells; test: MTT antiproliferative assay, CH1/PA-1; settings: exposure time 96 h, means ± standard deviations
Description: CH1/PA-1 (ovarian teratocarcinoma) cells were a generous gift from Lloyd R. Kelland (CRC Centre for Cancer Therapeutics, Institute of Cancer Research, Sutton, UK). A549 (non-small cell lung cancer), SW480, and HCT116 (both colon cancer) cells were kindly provided by the Institute of Cancer Research, Department of Medicine I, Medical University of Vienna, Austria. All cell lines were grown as monolayer cultures in Eagle’s MEM supplemented with L-glutamine (4 mM), sodium pyruvate (1 mM) and 1% (v/v) non-essential amino acid solution (all from Sigma-Aldrich) and 10% (v/v) heat-inactivated fetal calf serum (FCS, BioWest) in 75-cm^2 flasks (Starlab) at 37 °C under a humidified atmosphere containing 5% CO2 in air.
Antiproliferative activity of the compounds was determined with the colorimetric MTT assay (MTT = 3-(4,5-dimethyl-2-thiazolyl)-2,5-diphenyl-2H-tetrazolium bromide). CH1/PA-1, HCT116, SW480, and A549 cells with cell numbers of 1 × 10^3, 1.5 × 10^3, 2 × 10^3, and 3 × 10^3, respectively, were seeded in 100 μL per well into 96-well microculture plates (Starlab). After 24 h, test compounds were dissolved in DMSO (Fisher Scientific), serially diluted in complete MEM not to exceed a final DMSO content of 0.5% (v/v) and added in 100 μL per well. After 96 h, the drug-containing medium was replaced with 100 µL of RPMI 1640/MTT mixture, i. e., 6 parts of RPMI 1640 medium (Sigma-Aldrich; supplemented with 10% heat-inactivated fetal bovine serum and 4 mM L-glutamine), 1 part of MTT solution in phosphate-buffered saline (5 mg/mL; both from Sigma-Aldrich). After incubation for 4 h, the MTT-containing medium was replaced with 150 μL DMSO per well to dissolve the formazan product formed by viable cells. Optical densities at 550 nm (and at the reference wavelength of 690 nm) were measured with a microplate reader (ELx808, Bio-Tek). The IC50 values relative to untreated controls were interpolated from concentration–effect curves. At least three independent experiments were performed, each with triplicates per concentration level.

[2] = system: SW480 (colon cancer) cells; test: MTT antiproliferative assay, SW480; settings: exposure time 96 h, means ± standard deviations
Description: (§1) CH1/PA-1 (ovarian teratocarcinoma) cells were a generous gift from Lloyd R. Kelland (CRC Centre for Cancer Therapeutics, Institute of Cancer Research, Sutton, UK). A549 (non-small cell lung cancer), SW480, and HCT116 (both colon cancer) cells were kindly provided by the Institute of Cancer Research, Department of Medicine I, Medical University of Vienna, Austria. All cell lines were grown as monolayer cultures in Eagle’s MEM supplemented with L-glutamine (4 mM), sodium pyruvate (1 mM) and 1% (v/v) non-essential amino acid solution (all from Sigma-Aldrich) and 10% (v/v) heat-inactivated fetal calf serum (FCS, BioWest) in 75-cm^2 flasks (Starlab) at 37 °C under a humidified atmosphere containing 5% CO2 in air. […] After 24 h, test compounds were dissolved in DMSO (Fisher Scientific), serially diluted in complete MEM not to exceed a final DMSO content of 0.5% (v/v) and added in 100 μL per well. After 96 h, the drug-containing medium was replaced with 100 µL of RPMI 1640/MTT mixture, i. e., 6 parts of RPMI 1640 medium (Sigma-Aldrich; supplemented with 10% heat-inactivated fetal bovine serum and 4 mM L-glutamine), 1 part of MTT solution in phosphate-buffered saline (5 mg/mL; both from Sigma-Aldrich). After incubation for 4 h, the MTT-containing medium was replaced with 150 μL DMSO per well to dissolve the formazan product formed by viable cells. Optical densities at 550 nm (and at the reference wavelength of 690 nm) were measured with a microplate reader (ELx808, Bio-Tek). The IC50 values relative to untreated controls were interpolated from concentration–effect curves. At least three independent experiments were performed, each with triplicates per concentration level.

SW480 cells = test: Cellular accumulation by ICP-MS quantification of ruthenium (or platinum); settings: 50 µM; for cellular ruthenium values: ICP-MS; for cellular accumulation, fg Ru or Pt/Cell: exposure time 2 h, ICP-MS of ruthenium
Description: Ruthenium accumulation was measured by means of inductively coupled plasma mass spectrometry (ICP-MS) upon 2 h exposure of SW480 cells to 50 µM of each compound.
Cellular accumulation of the compounds was studied based on a previously described method with modifications as follows: SW480 cells with a number of 1.8 × 10^5 per well were seeded into 12-well plates in aliquots of 1 mL complete MEM and incubated at 37 °C for 24 h. Then, cells were exposed for 2 h at 37 °C to 50 μM solutions of the test compounds (containing 0.5% DMSO) in 500 µL of fresh complete MEM upon exchange of the medium. Afterwards, cells were washed three times with PBS, and lyzed with 0.4 mL sub-boiled HNO3 per well for 1 h at room temperature. Ruthenium content was quantified by ICP-MS using an Agilent 7500ce quadrupole ICP-MS instrument (Agilent Technologies, Waldbronn, Germany) equipped with a CETAC ASX-520 autosampler (Nebraska, USA) and a MicroMist nebulizer. Ruthenium and indium standards were obtained from CPI International (Amsterdam, The Netherlands). The instrument was equipped with nickel cones and operated at an RF power of 1560 W, with argon as the plasma gas (15 L/min), carrier gas (1.0–1.1 L/min) and make-up gas (0.1–0.2 L/min). The Agilent MassHunter software package (Workstation Software, Version B.01.01, Build 123.11, Patch 4, 2012) was used for data processing. Results are based on at least three independent experiments, each comprising triplicate samples. The instrument was tuned on a daily basis for maximum sensitivity and doubly charged species as well as oxide rates were <5%.

[3] = system: A549 (non-small cell lung cancer) cells; test: MTT antiproliferative assay, A549; settings: exposure time 96 h, means ± standard deviations
Description: as §1

[4] = system: HCT116 (colon cancer) cells; test: MTT antiproliferative assay, HCT116; settings: exposure time 96 h, means ± standard deviations
Description: as §1

Compound: Cc1ccc(C(C)C)cc1.O=C1C2=C(NCc3ccccc3)[O][Ru-]([Cl])[O+]=C2c2ccccc21 [1a]
- IC50 [1]: 12.5 ± 4.4 µM
- IC50 [2]: 12.4 ± 0.4 µM
- cellular ruthenium accumulation relative to complex 1d (SW480 cells; 2 h): almost fiftyfold lower
- cellular ruthenium values (SW480 cells; 2 h): < 10 fg/cell
- cellular accumulation, fg Ru or Pt/Cell (SW480 cells): 8.4 ± 2.8 fg Ru or Pt/Cell
- IC50 [3]: 23.4 ± 2.5 µM
- IC50 [4]: 24.8 ± 6.4 µM

Compound: Cc1ccc(C(C)C)cc1.Cn1ccnc1.F[P-](F)(F)(F)(F)F.O=C1C(=C(NCc2ccccc2)[O][Ru+])C(=O)c2ccccc21 [1b]
- IC50 [1]: 16.2 ± 2.6 µM
- IC50 [2]: 10.9 ± 1 µM
- cellular accumulation, fg Ru or Pt/Cell (SW480 cells): 97 ± 28 fg Ru or Pt/Cell
- IC50 [3]: 21.4 ± 1.7 µM
- IC50 [4]: 24.6 ± 8.5 µM

Compound: Cc1ccc(C(C)C)cc1.F[P-](F)(F)(F)(F)F.O=C1C2=C(NCc3ccccc3)[O][Ru-]([n+]3ccc[nH]3)[O+]=C2c2ccccc21 [1c]
- IC50 [1]: 11.5 ± 2 µM
- IC50 [2]: 15.2 ± 0.6 µM
- cellular accumulation, fg Ru or Pt/Cell (SW480 cells): 67 ± 27 fg Ru or Pt/Cell
- IC50 [3]: 22.9 ± 3.5 µM
- IC50 [4]: 22.4 ± 6 µM

Compound: Cc1ccc(C(C)C)cc1.F[P-](F)(F)(F)(F)F.O=C1C2=C(NCc3ccccc3)[O][Ru-]([n+]3c[nH]c4ccccc43)[O+]=C2c2ccccc21 [1d]
- IC50 [1]: 10.6 ± 1.8 µM
- IC50 [2]: 8.8 ± 1.3 µM
- cellular ruthenium values (SW480 cells; 2 h): > 400 fg/cell
- cellular accumulation, fg Ru or Pt/Cell (SW480 cells): 405 ± 128 fg Ru or Pt/Cell
- IC50 [3]: 19 ± 0.8 µM
- IC50 [4]: 18.8 ± 5.8 µM

Compound: Cc1ccc(C(C)C)cc1.F[P-](F)(F)(F)(F)F.O=C1C2=C(NCc3ccccc3)[O][Ru-]([n+]3cc4ccccc4[nH]3)[O+]=C2c2ccccc21 [1e]
- IC50 [1]: 11 ± 3 µM
- IC50 [2]: 16.8 ± 3.1 µM
- cellular accumulation, fg Ru or Pt/Cell (SW480 cells): 114 ± 35 fg Ru or Pt/Cell
- IC50 [3]: 23.7 ± 6.4 µM
- IC50 [4]: 25.1 ± 7.1 µM

Compound: Cc1ccc(C(C)C)cc1.F[P-](F)(F)(F)(F)F.O=C1C2=C(NCc3ccccc3)[O][Ru-]([NH+]3CCOCC3)[O+]=C2c2ccccc21 [1g]
- IC50 [1]: 12.2 ± 2.7 µM
- IC50 [2]: 9.2 ± 1.8 µM
- cellular accumulation, fg Ru or Pt/Cell (SW480 cells): 123 ± 32 fg Ru or Pt/Cell
- IC50 [3]: 18.9 ± 1.4 µM
- IC50 [4]: 23.8 ± 7.6 µM
